Reference: patent US10208064B2, “Inhibitors of the renal outer medullary potassium channel” (MERCK SHARP & DOHME CORP., priority 2014, dated 2019)
pIC50: −log10 of the molar value.

Biological target: ROMK (Kir1.1) channel (Homo sapiens (Human), UniProt P48048)
Test: Thallium Flux Assay
Format: cell-based
Protocol: The following Thallium Flux Assay was performed on each of the final product compounds in the Examples.
A Thallium Flux Assay was performed on the compounds of the Examples. This assay has been described previously; see, e.g., PCT Published Application WO 2013/062900.

Chain of ROMK (Kir1.1) channel (P48048 whole entry): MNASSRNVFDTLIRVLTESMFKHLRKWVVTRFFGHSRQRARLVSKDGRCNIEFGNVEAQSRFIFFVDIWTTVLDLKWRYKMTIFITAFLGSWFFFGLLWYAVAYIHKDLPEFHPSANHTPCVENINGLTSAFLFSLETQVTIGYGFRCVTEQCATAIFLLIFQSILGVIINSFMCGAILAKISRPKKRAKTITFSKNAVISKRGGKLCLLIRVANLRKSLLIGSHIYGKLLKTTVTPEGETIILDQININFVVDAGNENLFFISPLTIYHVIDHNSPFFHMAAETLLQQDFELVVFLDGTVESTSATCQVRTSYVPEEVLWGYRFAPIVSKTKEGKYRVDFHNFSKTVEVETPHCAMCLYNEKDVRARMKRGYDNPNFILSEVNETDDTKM

SMILES	pIC50
CC1=C(N2CCC3(CCN(C[C@H](O)c4ccc5c(c4C)CCc4nnnn4-5)CC3)C2=O)COC1=O [Example 10, (R)-8-(2-hydroxy-2-(6-methyl-4,5-dihydrotetrazolo[1,5-a]quinolin-7-yl)ethyl)-2-(4-methyl-5-oxo-2,5-dihydrofuran-3-yl)-2,8-diazaspiro[4.5]decan-1-one]	7.34
CC1=C(N2CCC3(CCN(C[C@@H](O)c4ccc5c(c4C)CCc4nnnn4-5)CC3)C2=O)COC1=O [Example 11, (S)-8-(2-hydroxy-2-(6-methyl-4,5-dihydrotetrazolo[1,5-a]quinolin-7-yl)ethyl)-2-(4-methyl-5-oxo-2,5-dihydrofuran-3-yl)-2,8-diazaspiro[4.5]decan-1-one]	7.33
C[C@@H]1CC2(CCN(C[C@H](O)c3ccc4c(c3)CCc3nnnn3-4)CC2)C(=O)N1C1=CC(=O)OC1 [Example 12, (R)-8-((R)-2-(4,5-dihydrotetrazolo[1,5-a]quinolin-7-yl)-2-hydroxyethyl)-3-methyl-2-(5-oxo-2,5-dihydrofuran-3-yl)-2,8-diazaspiro[4.5]decan-1-one]	6.73
C[C@H]1CC2(CCN(C[C@H](O)c3ccc4c(c3)CCc3nnnn3-4)CC2)C(=O)N1C1=CC(=O)OC1 [Example 13, (S)-8-((R)-2-(4,5-dihydrotetrazolo[1,5-a]quinolin-7-yl)-2-hydroxyethyl)-3-methyl-2-(5-oxo-2,5-dihydrofuran-3-yl)-2,8-diazaspiro[4.5]decan-1-one]	7.64
C[C@@H]1CC2(CCN(C[C@@H](O)c3ccc4c(c3)CCc3nnnn3-4)CC2)C(=O)N1C1=CC(=O)OC1 [Example 14, (R)-8-((S)-2-(4,5-dihydrotetrazolo[1,5-a]quinolin-7-yl)-2-hydroxyethyl)-3-methyl-2-(5-oxo-2,5-dihydrofuran-3-yl)-2,8-diazaspiro[4.5]decan-1-one]	6.55
C[C@@H]1CC2(CCN(C[C@H](O)c3ccc4c(ccc5nnnn54)c3)CC2)C(=O)N1C1=CC(=O)OC1 [Example 16, (R)-8-((R)-2-hydroxy-2-(tetrazolo[1,5-a]quinolin-7-yl)ethyl)-3-methyl-2-(5-oxo-2,5-dihydrofuran-3-yl)-2,8-diazaspiro[4.5]decan-1-one]	7.49
C[C@H]1CC2(CCN(C[C@H](O)c3ccc4c(ccc5nnnn54)c3)CC2)C(=O)N1C1=CC(=O)OC1 [Example 17, (S)-8-((R)-2-hydroxy-2-(tetrazolo[1,5-a]quinolin-7-yl)ethyl)-3-methyl-2-(5-oxo-2,5-dihydrofuran-3-yl)-2,8-diazaspiro[4.5]decan-1-one]	7.70
CC1=C(N2CCC3(CCN(C[C@@H](O)c4ccc5c(ccc6nnnn65)n4)CC3)C2=O)COC1=O [Example 22, (R)-8-(2-hydroxy-2-(tetrazolo[1,5-a][1,5]naphthyridin-7-yl)ethyl)-2-(4-methyl-5-oxo-2,5-dihydrofuran-3-yl)-2,8-diazaspiro[4.5]decan-1-one]	6.73
CC1=C(N2CCC3(CCN(C[C@H](O)c4cc5c(cc4C4CC4)-c4nnnn4C5)CC3)C2=O)COC1=O [Example 25, (R)-8-(2-(8-cyclopropyl-5H-tetrazolo[5,1-a]isoindol-7-yl)-2-hydroxyethyl)-2-(4-methyl-5-oxo-2,5-dihydrofuran-3-yl)-2,8-diazaspiro[4.5]decan-1-one]	6.89
CC1=C(N2CCC3(CCN(C[C@@H](O)c4cc5c(cc4C4CC4)-c4nnnn4C5)CC3)C2=O)COC1=O [Example 26, (S)-8-(2-(8-cyclopropyl-5H-tetrazolo[5,1-a]isoindol-7-yl)-2-hydroxyethyl)-2-(4-methyl-5-oxo-2,5-dihydrofuran-3-yl)-2,8-diazaspiro[4.5]decan-1-one]	7.09
CC1=C(N2CCC3(CCN(CC(O)c4ccc5c(c4)[C@H](C)n4nnnc4-5)CC3)C2=O)COC1=O (stereo partly drawn) [Example 27A, 8-(2-hydroxy-2-((S)-5-methyl-5H-tetrazolo[5,1-α]isoindol-7-yl)ethyl)-2-(4-methyl-5-oxo-2,5-dihydrofuran-3-yl)-2,8-diazaspiro[4.5]decan-1-one]	7.06
CC1=C(N2CCC3(CCN(CC(O)c4ccc5c(c4)[C@@H](C)n4nnnc4-5)CC3)C2=O)COC1=O (stereo partly drawn) [Example 27B, 8-(2-hydroxy-2-((R)-5-methyl-5H-tetrazolo[5,1-α]isoindol-7-yl)ethyl)-2-(4-methyl-5-oxo-2,5-dihydrofuran-3-yl)-2,8-diazaspiro[4.5]decan-1-one]	7.57
CC1=C(N2CCC3(CCN(C[C@H](O)c4ccc5c(c4)[C@@H](C)n4nnnc4-5)CC3)C2=O)COC1=O [Example 27C, 8-((R)-2-hydroxy-2-((R)-5-methyl-5H-tetrazolo[5,1-a]isoindol-7-yl)ethyl)-2-(4-methyl-5-oxo-2,5-dihydrofuran-3-yl)-2,8-diazaspiro[4.5]decan-1-one]	7.44
CC1=C(N2CCC3(CCN(C[C@@H](O)c4ccc5c(c4)[C@@H](C)n4nnnc4-5)CC3)C2=O)COC1=O [Example 27D, 8-((S)-2-hydroxy-2-((R)-5-methyl-5H-tetrazolo[5,1-a]isoindol-7-yl)ethyl)-2-(4-methyl-5-oxo-2,5-dihydrofuran-3-yl)-2,8-diazaspiro[4.5]decan-1-one]	7.54
CC1=C(N2CCC3(CCN([C@H](CO)c4ccc5c(ccc6nnnn65)c4)CC3)C2=O)COC1=O [Example 28A, (S)-8-(2-hydroxy-1-(tetrazolo[1,5-a]quinolin-7-yl)ethyl)-2-(4-methyl-5-oxo-2,5-dihydrofuran-3-yl)-2,8-diazaspiro[4.5]decan-1-one]	7.36
CC1=C(N2CCC3(CCN(C(CO)c4ccc5c(c4)CCc4nnnn4-5)CC3)C2=O)COC1=O (stereo not shown) [Example 29, 8-(1-(4,5-dihydrotetrazolo[1,5-a]quinolin-7-yl)-2-hydroxyethyl)-2-(4-methyl-5-oxo-2,5-dihydrofuran-3-yl)-2,8-diazaspiro[4.5]decan-1-one]	6.38
CO[C@@H](CN1CCC2(CC1)CCN(C1=C(C)C(=O)OC1)C2=O)c1ccc2c(c1)Cn1nnnc1-2 [Example 31, (R)-8-(2-methoxy-2-(5H-tetrazolo[5,1-a]isoindol-7-yl)ethyl)-2-(4-methyl-5-oxo-2,5-dihydrofuran-3-yl)-2,8-diazaspiro[4.5]decan-1-one]	6.62

Compounds with a higher pIC50, results first:

pIC50	SMILES
7.85	C[C@H]1CC2(CCN(C[C@@H](O)c3ccc4c(c3)CCc3nnnn3-4)CC2)C(=O)N1C1=CC(=O)OC1 [Example 15, (S)-8-((S)-2-(4,5-dihydrotetrazolo[1,5-a]quinolin-7-yl)-2-hydroxyethyl)-3-methyl-2-(5-oxo-2,5-dihydrofuran-3-yl)-2,8-diazaspiro[4.5]decan-1-one]
8.15	C[C@@H]1CC2(CCN(C[C@@H](O)c3ccc4c(ccc5nnnn54)c3)CC2)C(=O)N1C1=CC(=O)OC1 [Example 18, (R)-8-((S)-2-hydroxy-2-(tetrazolo[1,5-a]quinolin-7-yl)ethyl)-3-methyl-2-(5-oxo-2,5-dihydrofuran-3-yl)-2,8-diazaspiro[4.5]decan-1-one]
8.00	C[C@H]1CC2(CCN(C[C@@H](O)c3ccc4c(ccc5nnnn54)c3)CC2)C(=O)N1C1=CC(=O)OC1 [Example 19, (S)-8-((S)-2-hydroxy-2-(tetrazolo[1,5-a]quinolin-7-yl)ethyl)-3-methyl-2-(5-oxo-2,5-dihydrofuran-3-yl)-2,8-diazaspiro[4.5]decan-1-one]
7.96	CC1=C(N2CCC3(CCN(C[C@H](O)c4ccc5c(ccc6nnnn65)c4)CC3)C2=O)COC1=O [Example 20, (R)-8-(2-hydroxy-2-(tetrazolo[1,5-a]quinolin-7-yl)ethyl)-2-(4-methyl-5-oxo-2,5-dihydrofuran-3-yl)-2,8-diazaspiro[4.5]decan-1-one]
7.72	CC1=C(N2CCC3(CCN(C[C@@H](O)c4ccc5c(ccc6nnnn65)c4)CC3)C2=O)COC1=O [Example 21, (S)-8-(2-hydroxy-2-(tetrazolo[1,5-a]quinolin-7-yl)ethyl)-2-(4-methyl-5-oxo-2,5-dihydrofuran-3-yl)-2,8-diazaspiro[4.5]decan-1-one]
7.77	CC1=C(N2CCC3(CCN(C[C@H](O)c4ccc5c(c4C)Cn4nnnc4-5)CC3)C2=O)COC1=O [Example 23, (R)-8-(2-hydroxy-2-(6-methyl-5H-tetrazolo[5,1-a]isoindol-7-yl)ethyl)-2-(4-methyl-5-oxo-2,5-dihydrofuran-3-yl)-2,8-diazaspiro[4.5]decan-1-one]
7.80	CC1=C(N2CCC3(CCN(C[C@@H](O)c4ccc5c(c4C)Cn4nnnc4-5)CC3)C2=O)COC1=O [Example 24, (S)-8-(2-hydroxy-2-(6-methyl-5H-tetrazolo[5,1-a]isoindol-7-yl)ethyl)-2-(4-methyl-5-oxo-2,5-dihydrofuran-3-yl)-2,8-diazaspiro[4.5]decan-1-one]
8.22	CC1=C(N2CCC3(CCN(CCc4ccc5c(c4)Cn4nnnc4-5)CC3)C2=O)COC1=O [Example 30, 8-(2-(5H-tetrazolo[5,1-a]isoindol-7-yl)ethyl)-2-(4-methyl-5-oxo-2,5-dihydrofuran-3-yl)-2,8-diazaspiro[4.5]decan-1-one]
